Laboratory results: BindingDB's records for PubMed 1346637 (Mayo Clinic, 1992)

Columns and labels:
[1] = target: T1, Muscarinic acetylcholine receptor M4 (Homo sapiens, UniProt P08173)
T1 sequence (P08173 whole entry): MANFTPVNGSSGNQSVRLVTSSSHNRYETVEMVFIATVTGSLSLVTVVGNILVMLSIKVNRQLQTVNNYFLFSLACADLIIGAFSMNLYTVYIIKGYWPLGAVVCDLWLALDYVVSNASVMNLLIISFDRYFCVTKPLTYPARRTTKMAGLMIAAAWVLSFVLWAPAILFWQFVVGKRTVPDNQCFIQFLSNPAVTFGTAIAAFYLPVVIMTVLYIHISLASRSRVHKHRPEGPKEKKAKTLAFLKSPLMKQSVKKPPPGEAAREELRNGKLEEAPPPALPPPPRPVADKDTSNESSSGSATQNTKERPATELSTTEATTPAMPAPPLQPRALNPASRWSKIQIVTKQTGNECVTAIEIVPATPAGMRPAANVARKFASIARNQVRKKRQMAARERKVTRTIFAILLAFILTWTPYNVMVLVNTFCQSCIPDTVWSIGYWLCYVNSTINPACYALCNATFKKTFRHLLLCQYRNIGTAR

[2] = target: T2, Muscarinic acetylcholine receptor M5 (Homo sapiens, UniProt P08912)
T2 sequence (P08912 whole entry): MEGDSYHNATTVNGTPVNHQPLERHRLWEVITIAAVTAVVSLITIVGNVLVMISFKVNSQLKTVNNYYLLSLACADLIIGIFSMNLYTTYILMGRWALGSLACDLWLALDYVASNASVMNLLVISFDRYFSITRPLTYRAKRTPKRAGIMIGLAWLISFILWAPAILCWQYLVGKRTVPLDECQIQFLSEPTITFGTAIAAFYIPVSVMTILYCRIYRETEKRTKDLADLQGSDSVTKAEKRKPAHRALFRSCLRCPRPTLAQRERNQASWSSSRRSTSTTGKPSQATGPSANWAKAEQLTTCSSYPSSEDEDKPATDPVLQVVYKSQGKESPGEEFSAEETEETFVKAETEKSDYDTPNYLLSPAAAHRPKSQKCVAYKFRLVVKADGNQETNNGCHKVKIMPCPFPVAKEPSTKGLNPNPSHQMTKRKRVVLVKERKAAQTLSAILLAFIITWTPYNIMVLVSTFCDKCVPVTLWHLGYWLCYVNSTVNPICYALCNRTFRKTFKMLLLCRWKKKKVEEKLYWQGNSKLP

[3] = target: T3, Muscarinic acetylcholine receptor M2 (Homo sapiens, UniProt P08172)
T3 sequence (P08172 whole entry): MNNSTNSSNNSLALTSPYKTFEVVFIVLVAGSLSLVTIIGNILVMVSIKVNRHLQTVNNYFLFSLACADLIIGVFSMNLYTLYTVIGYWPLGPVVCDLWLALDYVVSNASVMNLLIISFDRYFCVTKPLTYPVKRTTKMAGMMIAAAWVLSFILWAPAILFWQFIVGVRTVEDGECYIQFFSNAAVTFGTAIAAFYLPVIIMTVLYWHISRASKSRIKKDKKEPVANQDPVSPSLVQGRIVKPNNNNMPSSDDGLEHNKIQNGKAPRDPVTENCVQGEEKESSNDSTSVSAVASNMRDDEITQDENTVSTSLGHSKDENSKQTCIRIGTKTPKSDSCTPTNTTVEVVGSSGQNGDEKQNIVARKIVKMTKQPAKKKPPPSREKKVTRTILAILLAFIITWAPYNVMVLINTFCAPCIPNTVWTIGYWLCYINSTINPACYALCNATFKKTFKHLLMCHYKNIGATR

Row | SMILES | Ki [1] | Ki [2] | Ki [3]
1 | CN(C)CCOC1=Cc2ccccc2Sc2ccc(Cl)cc21 [2-Chloro-11-(2-(dimethylamino)ethoxy)dibenzo(b,f)thiepin] | 77 nM | 260 nM | 
2 | CN1CCCCC1CCN1c2ccccc2Sc2ccc([S+](C)[O-])cc21 (centres undefined) | 19 nM | 60 nM | 15 nM
3 | CC1CCN(CCCC(=O)c2ccc(F)cc2)CC1 [CAS_3575-80-2] | 4400 nM | > 10000 nM | 2400 nM
4 | CN1CCN(C2=Nc3cscc3C(=CC#N)c3cscc32)CC1 [NSC_3086153] | 430 nM | 660 nM | 62 nM
5 | OC(CCN1CCCCC1)(c1ccccc1)C1CC2C=CC1C2 (centres undefined) [1-(bicyclo[2.2.1]hept-5-en-2-yl)-1-phenyl-3-(piperidin-1-yl)propan-1-ol] | 2.4 nM | 6.3 nM | 
6 | CN1CCN(C2=Cc3cc(Cl)ccc3C(=CC#N)c3ccccc32)CC1 [CAS_79781-95-6] | 1000 nM | 1100 nM | 470 nM
7 | CN1CCN(C2=Nc3cc(F)ccc3Cc3ccccc32)CC1 | 14 nM | 17 nM | 71 nM
8 | O=C1CC2(CCCC2)CC(=O)N1CCCCN1CCN(c2nsc3ccccc23)CC1 [TIOSPERONE] | 480 nM | 3900 nM | 180 nM
9 | CN1CCN(C2=Nc3ccccc3Oc3ccc(Cl)cc32)CC1 [13-chloro-10-(4-methylpiperazin-1-yl)-2-oxa-9-azatricyclo[9.4.0.0^{3,8}]pentadeca-1(11),3,5,7,9,12,14-heptaene] | 300 nM | 241 nM | 
10 | OC(CCN1CCCC1)(c1ccccc1)C1CCCCC1 (centres undefined) [1-Cyclohexyl-1-phenyl-3-pyrrolidin-1-yl-propan-1-ol] | 7 nM | 24 nM | 
11 | CN(C)CC/C=C1\c2ccccc2Sc2ccc(Cl)cc21 | 18 nM | 25 nM | 
12 | CN1CCN(CC/C=C2/c3ccccc3Sc3ccc(S(=O)(=O)N(C)C)cc32)CC1 [MLS000028463] | 1540 nM | 4310 nM | 2100 nM
13 | O=C(CCCN1CCC(O)(c2ccc(Br)cc2)CC1)c1ccc(F)cc1 [BROMPERIDOL] | 1700 nM | 4800 nM | 1800 nM
